{"source": "patent US12043448B2", "about": "“Compositions for containers and other articles and methods of using same” (SWIMC LLC, priority 2012, dated 2024)", "data": [{"tested_on": "MCF-7, clone WS8, cells", "test": "MCF-7 cell proliferation assay of estrogenic activity", "format": "cell-based, human", "details": "logarithmic value (base 10) of Relative Proliferative Effect in the MCF-7 assay; table gives 'expected or measured' values", "from_the_text": "The MCF-7 assay is a useful test for assessing whether a polyhydric phenol compound is appreciably non-estrogenic. The MCF-7 assay uses MCF-7, clone WS8, cells to measure whether and to what extent a substance induces cell proliferation via estrogen receptor (ER)-mediated pathways. The method is described in “Test Method Nomination: MCF-7 Cell Proliferation Assay of Estrogenic Activity” submitted for validation by CertiChem, Inc. to the National Toxicology Program Interagency Center for the Evaluation of Alternative Toxicological Methods (NICEATM) on Jan. 19, 2006 (available online at http://iccvam.niehs.nih.gov/methods/endocrine/endodocs/SubmDoc.pdf).\nA brief summary of the method of the aforementioned MCF-7 assay is provided below. MCF-7, clone WS8, cells are maintained at 37° C. in RMPI (or Roswell Park Memorial Institute medium) containing Phenol Red (e.g., GIBCO Catalog Number 11875119) and supplemented with the indicated additives for routine culture. An aliquot of cells maintained at 37° C. are grown for 2 days in phenol-free media containing 5% charcoal stripped fetal bovine serum in a 25 cm^2 tissue culture flask. Using a robotic dispenser such as an epMotion 5070 unit, MCF-7 cells are then seeded at 400 cells per well in 0.2 ml of hormone-free culture medium in Corning 96-well plates. The cells are adapted for 3 days in the hormone-free culture medium prior to adding the chemical to be assayed for estrogenic activity. The media containing the test chemical is replaced daily for 6 days. At the end of the 7-day exposure to the test chemical, the media is removed, the wells are washed once with 0.2 ml of HBSS (Hanks' Balanced Salt Solution), and then assayed to quantify amounts of DNA per well using a micro-plate modification of the Burton diphenylamine (DPA) assay, which is used to calculate the level of cell proliferation.\nRPE is the ratio between the EC50 of the test chemical and the EC50 of the control substance 17-beta estradiol times 100, where EC50 is “effective concentration […]” or half-maximum stimulation concentration for cell proliferation measured as total DNA in the MCF-7 assay.", "values": [{"smiles": "C[C@]12CC[C@@H]3c4ccc(O)cc4CC[C@H]3[C@@H]1CC[C@@H]2O", "note": "[17β-estradiol, reference compound]", "Log RPE": 2.00}, {"smiles": "Oc1ccc(Cc2ccc(O)cc2)cc1", "note": "[Bisphenol F, reference compound]", "Log RPE": "−2"}, {"smiles": "O=S(=O)(c1ccc(O)cc1)c1ccc(O)cc1", "note": "[Bisphenol S, reference compound]", "Log RPE": "−2"}, {"smiles": "O=c1c(-c2ccc(O)cc2)coc2cc(O)cc(O)c12", "note": "[Genistein, reference compound]", "Log RPE": "−2"}, {"smiles": "CC(c1ccc(O)cc1)(c1ccc(O)cc1)c1ccc(O)cc1", "note": "[Structure 3]", "Log RPE": "−3"}, {"smiles": "CC(c1ccccc1)(c1ccc(O)cc1)c1ccc(O)cc1", "note": "[Structure 4]", "Log RPE": "−3"}, {"smiles": "CC(C(=O)O)(c1ccc(O)cc1)c1ccc(O)cc1", "note": "[Structure 5]", "Log RPE": "less than −4"}, {"smiles": "CCCC(c1cc(C(C)(C)C)c(O)cc1C)c1cc(C(C)(C)C)c(O)cc1C", "note": "[Structure 7]", "Log RPE": "less than −4"}, {"smiles": "CC(C)(c1ccc(O)cc1)c1ccc(C(C)(C)c2ccc(O)cc2)cc1", "note": "[Structure 10]", "Log RPE": "less than −4"}, {"smiles": "Oc1ccccc1Cc1ccccc1O", "note": "[Structure 11]", "Log RPE": "less than −4"}, {"smiles": "CC(C)(C)c1cc(O)c(C(C)(C)C)cc1O", "note": "[Structure 12]", "Log RPE": "less than −4"}, {"smiles": "CC(C)(c1cc(Br)c(O)c(Br)c1)c1cc(Br)c(O)c(Br)c1", "note": "[Structure 16]", "Log RPE": "−3"}, {"smiles": "C/C=C(/C(=C/C)c1ccc(O)cc1)c1ccc(O)cc1", "note": "[dienestrol, reference compound]", "Log RPE": "about 2"}, {"smiles": "CC/C(=C(/CC)c1ccc(O)cc1)c1ccc(O)cc1", "note": "[diethylstilbestrol, reference compound]", "Log RPE": "about 2"}]}]}
